Values of other authors as cited in patent publication US9795686B2, “Biomaterials comprising hyaluronic acid binding peptides and bifunctional biopolymer molecules for hyaluronic acid retention and tissue engineering applications” (THE JOHNS HOPKINS UNIVERSITY, priority 2012, dated 2017).

Settings: previously observed; read-out: Kd, affinity of HABPep for HA

Kd: 1.65 µM
Sequence: GAHWQFNALTVR [HABPep]
